From patent US12679807B2 (MERCK SHARP & DOHME LLC, priority 2020, dated 2026)

These molecules were tested against T1, GCS enzyme contained within Golgi preparations isolated from human A375 malignant melanoma skin cells (Homo sapiens, UniProt Q16739) (assay: UDP-Glo glucosylceramide synthase biochemical assay). Settings: crude Golgi preparation from A375 cells; C6 ceramide and UDP-glucose substrates; 20 h incubation at room temperature; UDP detected by luminescence.
T1 construct: endogenous levels of GCS enzyme contained within Golgi preparations isolated from human A375 malignant melanoma skin cells; endogenous in cells; host or cells: A375 human malignant melanoma cells (crude Golgi preparation)
T1 sequence (Q16739 1-394): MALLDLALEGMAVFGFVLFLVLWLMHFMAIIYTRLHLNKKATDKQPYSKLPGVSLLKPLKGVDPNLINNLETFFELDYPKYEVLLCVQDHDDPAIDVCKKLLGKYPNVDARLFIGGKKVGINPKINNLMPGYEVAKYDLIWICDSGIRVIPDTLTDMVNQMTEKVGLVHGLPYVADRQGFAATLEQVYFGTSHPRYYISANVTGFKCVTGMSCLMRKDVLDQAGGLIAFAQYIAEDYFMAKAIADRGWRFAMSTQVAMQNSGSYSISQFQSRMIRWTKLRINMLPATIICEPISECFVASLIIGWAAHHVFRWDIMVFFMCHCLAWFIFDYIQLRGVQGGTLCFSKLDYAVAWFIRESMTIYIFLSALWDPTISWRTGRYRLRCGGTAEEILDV
Description: UDP-Glo™ Glucosylceramide Synthase Biochemical Assay
A UDP-Glo™ glucosylceramide synthase biochemical assay was utilized to evaluate the effect of test compounds on the activity of endogenous levels of GCS enzyme contained within Golgi preparations isolated from human A375 malignant melanoma skin cells. The UDP-Glo™ glucosylceramide synthase assay uses UDP-Glucose as a nucleotide-glycosyl donor and ceramide as substrate acceptor molecules. In the reaction, glucosylceramide synthase (GCS) transfers glucose from UDP-Glucose to ceramide. Glucosylceramide and UDP are released as products.
Using Promega's UDP-Glo™ Glycosyltransferase assay kit (Promega Corporation, Madison, WI, USA (Promega)), GCS activity was indirectly measured by detecting the amount of UDP produced. An aliquot of GCS enzyme (1.5 μg crude golgi preparation, total protein) and titrated test compound were aliquoted to each well and incubated for 30 minutes at room temperature. […] An equivalent volume of substrate mixture was then added to each well. Following a 20 h incubation at room temperature to allow for GCS turnover of substrate, an equal volume of UDP detection reagent (Promega) was added to each well and incubated for an additional 75 minutes at room temperature to simultaneously convert the accumulated UDP product into ATP and generate light in a luciferase reaction. The generated light was detected using a luminometer. […] luminescence values (RLUs) were normalized to mean “min” and “max” effects, as determined on each plate. […] Values for % Emax and EC50 were determined by best-fitting the normalized data to a curve in Activity Base along a four-parameter logistic nonlinear regression (4PL) model (based on the Levenberg-Marquardt algorithm and defined by the equation below):
[formula] where: n is 4 PMin (bottom of the curve); m is 4 PMax (top of the curve); i is IP (inflection point of curve); and p is slope. See Levenberg, K., “A Method for the Solution of Certain Problems in Least Squares”, Quart. Appl. Math. […] Math.

| Structure (SMILES) | EC50 [nM] |
| --- | --- |
| Cc1nnc(-c2ccc(-c3nccc4c3C(=O)N(C(C3CC3)C(C)(C)O)C4)cc2)o1 (single isomer, unassigned) [Compound 28, (R or S)-2-(1-cyclopropyl-2-hydroxy-2-methylpropyl)-4-(4-(5-methyl-1,3,4-oxadiazol-2-yl)phenyl)-1,2-dihydro-3H-pyrrolo[3,4-c]pyridin-3-one] | 540 |
| COc1cc(C#N)cc(-c2nccc3c2C(=O)N(C(C2CC2)C(C)(C)O)C3)c1 (single isomer, unassigned) [Compound 30, (R or S)-3-(2-(1-cyclopropyl-2-hydroxy-2-methylpropyl)-3-oxo-2,3-dihydro-1H-pyrrolo[3,4-c]pyridin-4-yl)-5-methoxybenzonitrile] | 95 |
| Cc1nnc(-c2ccc(-c3cncc4c3C(=O)N(C(C3CC3)C(C)(C)O)C4)cc2)o1 (single isomer, unassigned) [Compound 31, (R or S)-2-(1-cyclopropyl-2-hydroxy-2-methylpropyl)-7-(4-(5-methyl-1,3,4-oxadiazol-2-yl)phenyl)-2,3-dihydro-1H-pyrrolo[3,4-c]pyridin-1-one] | 180 |
| Cc1nnc(-c2ccc(-c3ccnc4c3C(=O)N(C(C3CC3)C(C)(C)O)C4)cc2)o1 (single isomer, unassigned) [Compound 33, (R or S)-6-(1-cyclopropyl-2-hydroxy-2-methylpropyl)-4-(4-(5-methyl-1,3,4-oxadiazol-2-yl)phenyl)-6,7-dihydro-5H-pyrrolo[3,4-b]pyridin-5-one] | 350 |
| Cc1nnc(-c2ccc(-c3cc(Cl)cc4c3C(=O)N(C(C3CC3)C(C)(C)O)C4)cc2)o1 (single isomer, unassigned) [Compound 39, (R or S)-5-chloro-2-(1-cyclopropyl-2-hydroxy-2-methylpropyl)-7-(4-(5-methyl-1,3,4-oxadiazol-2-yl)phenyl)isoindolin-1-one] | 0.8 |
| Cn1cc(-c2ccc(-c3cccc4c3C(=O)N(C(C(C)(C)O)C(F)(F)F)C4)cc2)cn1 (single isomer, unassigned) [Compound 43, (R or S)-7-(4-(1-methyl-1H-pyrazol-4-yl)phenyl)-2-(1,1,1-trifluoro-3-hydroxy-3-methylbutan-2-yl)isoindolin-1-one] | 24 |
| Cc1nnc(-c2ccc(-c3cccc4c3C(=O)N(C(C3CC3)C3(O)COC3)C4)cc2)o1 (single isomer, unassigned) [Compound 51, (R or S)-2-(cyclopropyl(3-hydroxyoxetan-3-yl)methyl)-7-(4-(5-methyl-1,3,4-oxadiazol-2-yl)phenyl)isoindolin-1-one] | 5.9 |
| Cc1nnc(-c2ccc(-c3cccc4c3C(=O)N([C@H](C3CC3)C(C)(C)O)C4C)cc2)o1 (single isomer, unassigned) [Compound 62, (R or S)-2-((R)-1-Cyclopropyl-2-hydroxy-2-methylpropyl)-3-methyl-7-(4-(5-methyl-1,3,4-oxadiazol-2-yl)phenyl)isoindolin-1-one] | 53 |
| Cc1ccc(F)c(C(=O)Nc2cccc3c2C(=O)N(C(C2CC2)C(C)(C)O)C3)c1Cl (single isomer, unassigned) [Compound 110, (R or S)-2-chloro-N-(2-(1-cyclopropyl-2-hydroxy-2-methylpropyl)-3-oxoisoindolin-4-yl)-6-fluoro-3-methylbenzamide] | 0.21 |
| Cc1ccc(Cl)c(C(=O)Nc2cccc3c2C(=O)N(C(C2CC2)C(C)(C)O)C3)c1F (single isomer, unassigned) [Compound 111, (R or S)-6-chloro-N-(2-(1-cyclopropyl-2-hydroxy-2-methylpropyl)-3-oxoisoindolin-4-yl)-2-fluoro-3-methylbenzamide] | 0.26 |
| COc1ccc(F)c(F)c1C(=O)Nc1cccc2c1C(=O)N(C(C1CC1)C(C)(C)O)C2 (single isomer, unassigned) [Compound 112, (R or S)-N-(2-(1-cyclopropyl-2-hydroxy-2-methylpropyl)-3-oxoisoindolin-4-yl)-2,3-difluoro-6-methoxybenzamide] | 0.41 |
| Cc1cccc(C(=O)Nc2cccc3c2C(=O)N(C(C2CC2)C(C)(C)O)C3)c1Cl (single isomer, unassigned) [Compound 113, (R or S)-2-chloro-N-(2-(1-cyclopropyl-2-hydroxy-2-methylpropyl)-3-oxoisoindolin-4-yl)-3-methylbenzamide] | 1.2 |
| CC(C)(O)C(C1CC1)N1Cc2cccc(NC(=O)c3cccc4c3CCC4)c2C1=O (single isomer, unassigned) [Compound 114, (R or S)-N-(2-(1-cyclopropyl-2-hydroxy-2-methylpropyl)-3-oxoisoindolin-4-yl)-2,3-dihydro-1H-indene-4-carboxamide] | 1.3 |
| CC(C)(O)C(C1CC1)N1Cc2cccc(NC(=O)c3c(F)ccc(F)c3Cl)c2C1=O (single isomer, unassigned) [Compound 115, (R or S)-2-chloro-N-(2-(1-cyclopropyl-2-hydroxy-2-methylpropyl)-3-oxoisoindolin-4-yl)-3,6-difluorobenzamide] | 1.5 |

Next, values leading:

| EC50 [nM] | Structure (SMILES) |
| --- | --- |
| 3.1 | CC(C)(O)C(C1CC1)N1Cc2cccc(NC(=O)c3cccc(F)c3C(F)(F)F)c2C1=O (single isomer, unassigned) [Compound 116, (R or S)-N-(2-(1-cyclopropyl-2-hydroxy-2-methylpropyl)-3-oxoisoindolin-4-yl)-3-fluoro-2-(trifluoromethyl)benzamide] |
| 7.2 | Cc1c(F)cccc1C(=O)Nc1cccc2c1C(=O)N(C(C1CC1)C(C)(C)O)C2 (single isomer, unassigned) [Compound 119, (R or S)-N-(2-(1-cyclopropyl-2-hydroxy-2-methylpropyl)-3-oxoisoindolin-4-yl)-3-fluoro-2-methylbenzamide] |
| 10 | Cc1c(C(=O)Nc2cccc3c2C(=O)N(C(C2CC2)C(C)(C)O)C3)cccc1C(F)(F)F (single isomer, unassigned) [Compound 120, (R or S)-N-(2-(1-cyclopropyl-2-hydroxy-2-methylpropyl)-3-oxoisoindolin-4-yl)-2-methyl-3-(trifluoromethyl)benzamide] |
| 45 | CC(C)(O)C(C1CC1)N1Cc2cccc(NC(=O)c3cccc4ncsc34)c2C1=O (single isomer, unassigned) [Compound 131, (R or S)-N-(2-(1-cyclopropyl-2-hydroxy-2-methylpropyl)-3-oxoisoindolin-4-yl)benzo[d]thiazole-7-carboxamide] |
| 80 | COCC(C1CC1)N1Cc2cccc(NC(=O)c3ccnc4c3CCC4)c2C1=O (single isomer, unassigned) [Compound 136, (R or S)-N-(2-(1-cyclopropyl-2-methoxyethyl)-3-oxoisoindolin-4-yl)-6,7-dihydro-5H-cyclopenta[b]pyridine-4-carboxamide] |
| 61 | CC(C)(O)C(C1CC1)N1Cc2cncc(NC(=O)c3ccnc4c3CCC4)c2C1=O (single isomer, unassigned) [Compound 151, (R or S)—N-(2-(1-Cyclopropyl-2-hydroxy-2-methylpropyl)-1-oxo-2,3-dihydro-1H-pyrrolo[3,4-c]pyridin-7-yl)-6,7-dihydro-5H-cyclopenta[b]pyridine-4-carboxamide] |
| 96 | CC(C)(O)C(C1CC1)N1Cc2nccc(NC(=O)c3ccnc4c3CCC4)c2C1=O (single isomer, unassigned) [Compound 152, (R or S)-N-(6-(1-cyclopropyl-2-hydroxy-2-methylpropyl)-5-oxo-6,7-dihydro-5H-pyrrolo [3,4-b]pyridin-4-yl)-6,7-dihydro-5H-cyclopenta[b]pyridine-4-carboxamide] |
| 29 | COc1ncc(C)c(C(=O)Nc2cccc3c2C(=O)N(C(C2CC2)C(C)(C)O)C3)c1C (single isomer, unassigned) [Compound 153, (R or S)-N-(2-(1-cyclopropyl-2-hydroxy-2-methylpropyl)-3-oxoisoindolin-4-yl)-2-methoxy-3,5-dimethylisonicotinamide] |
| 0.1 | COc1ncc(Cl)c(C(=O)Nc2cccc3c2C(=O)N(C(C2CC2)C(C)(C)O)C3)c1C (single isomer, unassigned) [Compound 154, (R or S)-5-Chloro-N-(2-(1-cyclopropyl-2-hydroxy-2-methylpropyl)-3-oxoisoindolin-4-yl)-2-methoxy-3-methylisonicotinamide] |
